Columns and labels:
Botrytis cinerea = test: Fungal growth inhibition, treated disc on agar (BOT CIN); format: cell-based; settings: disc dipped in 500 mg/l, 29° C.; for inhibition at 500 µg/mL: Botrytis cinerea, read-out: Percent Growth Inhibition, BOT CIN
Text: Filter paper discs, each 11 mm. in diameter, were dipped in each of the test solutions. The discs were allowed to air dry to drive off the acetone solvent. A number of untreated discs were used as controls.
The treated and untreated discs were then placed on agar plates and one of the following fungus species: Septoria nodorum (SEP NOD), Botrytis cinerea (BOT CIN), Fusarium oxysporum (FUS OXY), Pythium ultimum (PYT ULT), Rhizoctonia solani (RHI SOL), Colletotrichum gossypii (COL GOS), and Scierotinia minor (SCL MIN), was added to the center of each disc in the form of a culture plug with the fungus mat in contact with the paper of the test disc. Cercosporidium personatum (CER PER), was added to discs as a spore suspension (20,000 spores/ml) to the disc (two drops of spore suspension per disc), rather than a mycelial culture plug. The plates were then incubated at 29° C. in an oven.
With the exception of the discs containing Cercosporidium personatum, the discs were evaluated by first measuring the radius from the center of the fungus colony on the treated discs and on the untreated discs. Percent growth inhibition of each of the compounds tested was determined as a function of the difference between the radius of the fungus colony on the treated disc versus the radius of the fungus colony on the untreated disc.

Helminthosporium sativum = test: Barley spot blotch, foliar treatment (HEL SAT); format: in vivo; settings: foliar, 1,000 mg/l; for pest or weed control at 1000 µg/mL: Helminthosporium, foliar, 216 h, read-out: Percent Reduction of Disease, HEL SAT
Method in brief: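 Percent control of H. sativum blotch was computed after foliar spraying of six-day-old "Robust" barley (10 plants/pot) at 1,000 mg/l versus unsprayed pots. Spore inoculation followed spraying, then 24 h in a 99% humidity chamber and eight days in a 21° C greenhouse.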

Erysiphe cichoracearum = test: Powdery mildew of cucumber, systemic root uptake (CMS); format: in vivo; settings: 45 ml of 250 mg/l, 8 days after inoculation
Method in brief: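 Pot soil of barley (BMS) and cucumber (CMS) plants was drenched with 45 ml of a 250 mg/l acetone/Tween 20 aqueous emulsion, with untreated plants as controls. Disease was scored on a rating scale that included intermediate grades.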

Uromyces phaseoli = test: Bean rust fungus eradicant test (URO PHA); format: in vivo; settings: pinto bean, eradicant spray 2 days after inoculation, 1,000 mg/l; for pest or weed control at 1000 µg/mL: Uromyces phaseoli, 216 h, read-out: Percent Reduction of Disease, URO PHA
Method in brief: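 Seven-day-old pinto bean plants (Phaseolus vulgaris, primary leaf) were inoculated with 20,000 spores/ml, held 24 h at 99% humidity and 21° C., then sprayed two days post-inoculation with acetone/TWEEN 20 emulsions at 1,000 mg/l. After nine days in a 21° C. greenhouse, disease was scored as percent reduction versus unsprayed controls.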

Rhizoctonia solani = test: Fungal growth inhibition, treated disc on agar (RHI SOL); format: cell-based; settings: disc dipped in 500 mg/l, 29° C.; for inhibition at 500 µg/mL: Rhizoctonia solani, read-out: Percent Growth Inhibition, RHI SOL
Septoria nodorum = test: Fungal growth inhibition, treated disc on agar (SEP NOD); format: cell-based; settings: disc dipped in 500 mg/l, 29° C.; for inhibition at 500 µg/mL: Parastagonospora nodorum, read-out: Percent Growth Inhibition, SEP NOD
Erysiphe graminis = test: Powdery mildew in barley, foliar application (ERY GRA); format: in vivo; settings: foliar, 1,000 mg/l, 8 days after inoculation; for pest or weed control at 1000 µg/mL: Blumeria graminis, foliar, 192 h, read-out: Percent Reduction of Disease, ERY GRA
Method in brief: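 'Robust' barley plants sprayed with acetone/TWEEN 20 aqueous emulsion at 1,000 mg/l, dried, then kept at 21° C in a greenhouse. Inoculated by distributing Erysiphe graminis spores from infected plants. Percent control computed from disease scores vs unsprayed control pots.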

Pyricularia oryzae = test: whole plant or invertebrate; format: in vivo; settings: for Percent Reduction of Disease, PYR ORY: barley, foliar, 1,000 mg/l; for pest or weed control at 1000 µg/mL: Pyricularia oryzae, in Hordeum vulgare, foliar, 216 h, read-out: Percent Reduction of Disease, PYR ORY, barley, foliar, 1,000 mg/l

Row | Structure (SMILES) | Percent Growth Inhibition, BOT CIN (Botrytis cinerea) | Percent Reduction of Disease, HEL SAT (Helminthosporium sativum) | Percent Reduction of Disease, CMS (Erysiphe cichoracearum) | Percent Reduction of Disease, URO PHA (Uromyces phaseoli) | Percent Growth Inhibition, RHI SOL (Rhizoctonia solani) | Percent Growth Inhibition, SEP NOD (Septoria nodorum) | Percent Reduction of Disease, ERY GRA (Erysiphe graminis) | Percent Reduction of Disease, PYR ORY (Pyricularia oryzae) | inhibition at 500 µg/mL (Botrytis cinerea) | pest or weed control at 1000 µg/mL (Helminthosporium sativum) | pest or weed control at 1000 µg/mL (Uromyces phaseoli) | inhibition at 500 µg/mL (Rhizoctonia solani) | inhibition at 500 µg/mL (Septoria nodorum) | pest or weed control at 1000 µg/mL (Erysiphe graminis) | pest or weed control at 1000 µg/mL (Pyricularia oryzae)
1 | N#CC(CCCc1ccc(Cl)cc1)(CC1CC1)c1ccccn1 (centres unmarked) [Compound 32] | 96% | 90% | 0% | 85% | 0% | 89% | 100% | 100% |  |  |  |  |  |  | 
2 | C=CCC(C#N)(CCc1ccc(C)cc1)c1cccnc1 (centres unmarked) [Compound 33] |  |  | 20% |  |  |  |  |  | 98% | 100% | 100% | 0% | 96% | 100% | 85%
3 | CCCCC(C#N)(CCc1ccc(OCC)cc1)c1cccnc1 (centres unmarked) [Compound 35] |  |  | 0% | 90% |  |  |  |  | 91% | 100% |  | 40% | 90% | 85% | 55%
4 | CCCCCCC(C#N)(CCc1ccc(OC)cc1)c1cccnc1 (centres unmarked) [Compound 36] |  |  | 0% |  |  |  |  |  | 45% | 100% | 100% | 25% | 96% | 85% | 90%
5 | COc1ccc(CCC(C#N)(CC2CC2)c2cccnc2)cc1 (centres unmarked) [Compound 37] |  |  | 0% |  |  |  |  |  | 100% | 100% | 92% | 13% | 100% | 92% | 100%
6 | C#CCC(C#N)(CCc1ccc(OC)cc1)c1cccnc1 (centres unmarked) [Compound 38] |  |  | 0% |  |  |  |  |  | 100% | 100% | 0% | 0% | 100% | 83% | 17%
7 | CC(C)CC(C#N)(CCc1ccc(F)cc1)c1cccnc1 (centres unmarked) [Compound 39] |  |  | 0% |  |  |  |  |  | 57% | 100% | 92% | 11% | 8% | 92% | 100%
8 | C=CCC(C#N)(CCc1ccc(OCC)cc1)c1cccnc1 (centres unmarked) [Compound 40] |  |  | 0% |  |  |  |  |  | 100% | 100% | 17% | 0% | 100% | 67% | 92%
9 | C#CCC(C#N)(CCc1ccc(F)cc1)c1cccnc1 (centres unmarked) [Compound 41] |  |  | 0% |  |  |  |  |  | 32% | 100% | 0% | 26% | 63% | 92% | 92%
10 | CCCCC(C#N)(CCc1ccc(OCC)cc1)c1cccnc1.Cl (stereo not drawn) [Compound 42, α-butyl-4-ethoxy-α-(3-pyridinyl)-benzenebutanenitrile hydrochloride] | 100% | 100% | 0% | 33% | 32% | 100% | 92% | 67% |  |  |  |  |  |  | 
11 | CCOc1ccc(CCC(C#N)(CC(C)C)c2cccnc2)cc1 (centres unmarked) [Compound 43] |  |  | 0% |  |  |  |  |  | 100% | 100% | 83% | 48% | 100% | 92% | 100%
12 | CCCCCCC(C#N)(CCc1ccc(OCC)cc1)c1cccnc1 (centres unmarked) [Compound 44] |  |  | 0% |  |  |  |  |  | 43% | 100% | 92% | 30% | 100% | 83% | 17%
13 | CCCCCCC(C#N)(CCc1ccc(F)cc1)c1cccnc1 (centres unmarked) [Compound 45] |  |  | 67% |  |  |  |  |  | 100% | 100% | 92% | 6% | 100% | 92% | 17%
14 | CCCC(C#N)(CCc1ccc(OCC)cc1)c1cccnc1 (centres unmarked) [Compound 46] |  |  | 0% |  |  |  |  |  | 100% | 100% | 33% | 8% | 100% | 92% | 0%
15 | CC(C)=CCC(C#N)(CCc1ccc(F)cc1)c1cccnc1 (centres unmarked) [Compound 47] |  |  | 0% |  |  |  |  |  | 100% | 100% | 33% | 45% | 100% | 70% | 0%
16 | COc1ccc(CCC(C#N)(CC=C(C)C)c2cccnc2)cc1 (centres unmarked) [Compound 48] |  |  | 0% |  |  |  |  |  | 100% | 100% | 83% | 28% | 100% | 67% | 33%
17 | CC(C)CCC(C#N)(CCc1ccc(F)cc1)c1cccnc1 (centres unmarked) [Compound 49] | 100% |  | 0% | 83% | 100% | 100% |  | 17% |  | 100% |  |  |  | 100% | 
18 | COCC(C#N)(CCc1ccc(OC)cc1)c1cccnc1 (centres unmarked) [Compound 50] |  |  | 0% |  |  |  |  |  | 0% | 100% | 90% | 20% | 100% | 80% | 0%
19 | COCC(C#N)(CCc1ccc(F)cc1)c1cccnc1 (centres unmarked) [Compound 51] |  |  | 0% |  |  |  |  |  | 100% | 90% | 20% | 30% | 100% | 91% | 20%
20 | N#CC(CCc1ccc(F)cc1)(CC(F)(F)F)c1cccnc1 (centres unmarked) [Compound 52] |  |  | 85% |  |  |  |  |  | 100% | 100% | 70% | 100% | 100% | 100% | 90%
21 | N#CC(CCF)(CCc1ccc(F)cc1)c1cccnc1 (centres unmarked) [Compound 53] |  |  | 0% |  |  |  |  |  | 100% | 90% | 0% | 75% | 100% | 100% | 70%
22 | CCCCOc1ccc(CCC(C#N)(CCCC)c2cccnc2)cc1 (centres unmarked) [Compound 54] |  |  | 0% |  |  |  |  |  | 100% | 100% | 35% | 100% | 100% | 100% | 90%

Reference: patent publication US5945436A, “Pyridylmethyl nitriles, amides and thioamides useful as fungicides” (Uniroyal Chemical Company, Inc., priority 1997, dated 1999)
